Data from patent US11866460B2 (priority 2015, dated 2024).
Converted amounts (≈) assume the structure as drawn. “And” between values parts separate entries of the source, which are not always exact repeats. Equal entries are not always repeated. Where two headings read alike, the source gives them in different places. Where a SMILES comes first, the peptide text is derived from it. Where no end group is shown, it is not given here.

Key:
[1] = system: Ca Ski cells
[2] = system: HEC1A cells
[3] = system: Caco-2 cells
[4] = system: HIV-1RF; format: cell-based
[5] = system: ME180 cells
[6] = system: HIV-1US/92/727; conditions: human PBMCs
[7] = system: human PBMCs
[8] = system: Clostridium difficile; experiment: microbe, parasite or virus in culture; format: cell-based; conditions: Clostridioides difficile, 48 h
[9] = system: Haemophilus influenzae; experiment: microbe, parasite or virus in culture; format: cell-based
[10] = system: Propionibacterium acnes; experiment: microbe, parasite or virus in culture; format: cell-based; conditions: Cutibacterium acnes, 48 h
[11] = system: panel of enveloped viruses (DENV, JEV, YFV, CHIKV and others); conditions: panel of enveloped viruses (, JEV, YFV, CHIKV and others)
[12] = system: aerobic Gram-positive bacterial isolates (S. aureus, enterococci, streptococci, and B. anthracis)
[13] = system: Streptococcus pneumoniae (PRSP)
[14] = system: JUNV Candid #1; conditions: 0 h
[15] = system: Streptococcus salivarius
[16] = in vitro; conditions: human, TC50
[17] = system: Enterococcus faecalis (VRE)
[18] = system: Streptococcus pyogenes
[19] = in vitro; conditions: Lactobacillus acidophilus
[20] = system: Bacillus anthracis Sterne
[21] = system: Vero cells, erythrocyte, epithelial and endometrial cell lines
[22] = system: Marburg virus (MARV)
[23] = system: Vero cells; conditions: African green monkey
[24] = system: Enterococcus faecium (VRE)
[25] = system: Streptococcus agalactiae
[26] = system: VACV NYCBH; conditions: 0 h
[27] = system: human erythrocyte cells
[28] = system: Ebola virus (EBOV)
[29] = in vitro; conditions: dog
[30] = system: VEEV TC-83; conditions: 0 h
[31] = system: Lactobacillus acidophilus
[32] = system: Staphylococcus aureus (MSSA)
[33] = system: Enterococcus faecalis (VSE)
[34] = system: Lactobacillus jensenii
[35] = in vitro; conditions: Lactobacillus crispatus
[36] = system: Lactobacillus crispatus
[37] = in vitro; conditions: Lactobacillus jensenii
[38] = system: CHIKV 181/25; conditions: 0 h
[39] = system: DENV-1 PRS41393; conditions: -1 PRS41393, 0 h
[40] = system: Streptococcus pneumoniae (PSSP)
[41] = in vitro; conditions: African green monkey, CC50
[42] = system: ZIKV FSS 13025; conditions: read-out: IC50, yield reduction; Vero cells, day 3
[43] = system: ZIKV FSS 13025; conditions: read-out: IC50 (PRNT50), plaque reduction; Vero cells, day 4
[44] = system: HSV-1; experiment: microbe, parasite or virus in culture; conditions: Human alphaherpesvirus 1, Vero
[45] = 0.01 μg/mL during exposure, Day 3
[46] = 0.01 μg/mL during exposure, Day 6
[47] = 0.1 μg/mL during exposure, Day 3
[48] = 0.1 μg/mL during exposure, Day 6
[49] = 10 μg/mL during exposure, Day 3
[50] = 10 μg/mL during exposure, Day 6
[51] = 100 μg/mL during exposure, Day 3
[52] = 100 μg/mL during exposure, Day 6
[53] = 1000 μg/mL during exposure, Day 3
[54] = 1000 μg/mL during exposure, Day 6

Nonoxynol-9 [Nonoxynol 9]
TC50 [1]: 61.3 µg/mL | TC50 [2]: 62.9 µg/mL | TC50 [3]: 55.1 µg/mL | Log Reduction in Virus Titer [4, 45]: 0.3 log | TCID50 Sample - Virus [4, 45]: 5 | Log Reduction in Virus Titer [4, 46]: 0.5 log | TCID50 Sample - Virus [4, 46]: 6 | Log Reduction in Virus Titer [4, 47]: 0.3 log | TCID50 Sample - Virus [4, 47]: 5 | Log Reduction in Virus Titer [4, 48]: 0.7 log | TCID50 Sample - Virus [4, 48]: 5.8 | Log Reduction in Virus Titer ([4]; 1 μg/mL during exposure, Day 3): 0.3 log | TCID50 Sample - Virus ([4]; 1 μg/mL during exposure, Day 3): 5 | Log Reduction in Virus Titer ([4]; 1 μg/mL during exposure, Day 6): 0 log | TCID50 Sample - Virus ([4]; 1 μg/mL during exposure, Day 6): ≥6.6 | Log Reduction in Virus Titer [4, 49]: 0 log | TCID50 Sample - Virus [4, 49]: 5.3 | Log Reduction in Virus Titer [4, 50]: 0 log | TCID50 Sample - Virus [4, 50]: ≥6.6 | Log Reduction in Virus Titer [4, 51]: ≥3.3 log | TCID50 Sample - Virus [4, 51]: ≤2.0 | Log Reduction in Virus Titer [4, 52]: 2.9 log | TCID50 Sample - Virus [4, 52]: 3.6 | Log Reduction in Virus Titer [4, 53]: ≥2.8 log | TCID50 Sample - Virus [4, 53]: ≤2.5 | Log Reduction in Virus Titer [4, 54]: ≥2.7 log | TCID50 Sample - Virus [4, 54]: ≤3.8 | TC50 [5]: 74.0 µg/mL

Cc1cn([C@H]2C[C@H](N=[N+]=[N-])[C@@H](CO)O2)c(=O)[nH]c1=O [AZT]
TI (TC50/EC50) [6]: >342.5 | EC50 ([6]; 7 days): 2.9 nM and 2.92 nM | CC50 [7]: > 1000 nM

CCC[C@@H]1C[C@@H](C(=O)N[C@@H]([C@H]2O[C@H](SC)[C@H](O)[C@@H](O)[C@H]2O)[C@H](C)Cl)N(C)C1 [Clindamycin]
MIC [8]: 1 µg/mL (≈ 2.35 µM) | MIC [9]: 4 µg/mL (≈ 9.41 µM) | MIC [10]: ≤ 0.06 µg/mL

SGSWLRDVWTWLQSKL [TSG001]
EC50 [11]: < 3000 nM | MICs, range over isolates [12]: 2 to 16 µg/mL | MIC [13]: 8 µM | EC50 [14]: > 75000 nM | MIC [15]: 4 µM | CC50 [16]: 37000 nM | MIC [17]: 4 µM | TI (TC50/EC50) [6]: 8.93 | MIC [18]: 4 µM | CC50 [19]: > 50000 nM | MIC [20]: 1 µM | cytotoxicity [21]: minimal cytotoxicity | EC50 [22]: 637 nM | CC50 [23]: 153000 nM | MIC [24]: 2 µM | MIC [25]: 8 µM | EC50 [26]: > 12500 nM | MHC [27]: 50 µM | EC50 [28]: 934 nM | CC50 [29]: > 200000 nM | EC50 [30]: > 12500 nM | TC50 [31]: non-toxic | MIC [32]: 2 µM | MIC [33]: 2 µM | TC50 [34]: non-toxic | CC50 [35]: > 50000 nM | TC50 [36]: non-toxic | CC50 [37]: > 50000 nM | EC50 [38]: 2240 nM | EC50 [39]: 3420 nM | MIC [40]: 8 µM | CC50 ([5]; human): 37000 nM

CC(C)C[C@@H](NC(=O)[C@@H](CCCCN)NC(=O)[C@@H](CO)NC(=O)[C@@H](CCC(N)=O)NC(=O)[C@@H](CC(C)C)NC(=O)[C@@H](Cc1c[nH]c2ccccc12)NC(=O)[C@H](NC(=O)[C@@H](Cc1c[nH]c2ccccc12)NC(=O)[C@H](NC(=O)[C@@H](CC(=O)O)NC(=O)[C@@H](CCCNC(=N)N)NC(=O)[C@@H](CC(C)C)NC(=O)[C@@H](Cc1c[nH]c2ccccc12)NC(=O)[C@@H](CO)NC(=O)CNC(=O)[C@H](N)CO)C(C)C)[C@H](C)O)C(=O)O [TSG001 D-isomer] (HELM PEPTIDE1{[dS].G.[dS].[dW].[dL].[dR].[dD].[dV].[dW].[dT].[dW].[dL].[dQ].[dS].[dK].[dL]}$$$$V2.0; N-terminus and C-terminus assumed)
CC50 [41]: 11600 nM | IC50 [42]: 646 nM | IC50 [43]: 490 nM

Nc1nc2c(ncn2COCCO)c(=O)[nH]1 [Acyclovir]
EC50 [44]: 2820 nM
